Results: patent US6451814B1, “Heterocyclic β-3 adrenergic receptor agonists” (Wyeth, priority 2000, dated 2002)
“And” between values parts separate entries of the source, which are not always exact repeats. Equal entries are not always repeated. Where two headings read alike, the source gives them in different places.

Biological target: T1, human β3-adrenergic receptor (Homo sapiens, UniProt P13945)
T1 construct: Full length β3 AR clones (402 amino acids) containing the last 6 amino acids of hβ3—AR are prepared; expressed in transfected cells; host or cells: CHO cells
T1 sequence (P13945 whole entry): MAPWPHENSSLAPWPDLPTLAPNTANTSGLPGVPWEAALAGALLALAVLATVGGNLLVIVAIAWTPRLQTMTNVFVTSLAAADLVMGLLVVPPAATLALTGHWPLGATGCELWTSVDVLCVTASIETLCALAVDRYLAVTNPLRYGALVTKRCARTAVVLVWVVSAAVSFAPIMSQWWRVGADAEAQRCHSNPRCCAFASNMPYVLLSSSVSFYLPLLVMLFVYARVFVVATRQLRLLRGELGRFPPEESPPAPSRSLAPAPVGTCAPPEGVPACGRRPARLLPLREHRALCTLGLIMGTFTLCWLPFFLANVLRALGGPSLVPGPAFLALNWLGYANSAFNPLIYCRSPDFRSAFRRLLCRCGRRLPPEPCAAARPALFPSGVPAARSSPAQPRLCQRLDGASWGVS
Assay: cAMP response (SPA kit) in CHO cells transfected with human β3 adrenergic receptor
Type: cell-based
Settings: for EC50: CHO cells expressing human β3-AR, 10^-9 M to 10^-5 M, 30 min at 37° C., cAMP by SPA; for IA(β3): maximal response of compound compared to maximal response of isoproterenol at 10^-5 M, CHO cells, human β3-AR

Compound	EC50 (read-out: EC50(β3))	IA(β3)	EC50 (EC50(β3, μM)) [µM]
CCCCCCCCNC(=O)N1CCC(Nc2ccc(CCNC[C@H](O)COc3ccc(O)c(NS(C)(=O)=O)c3)cc2)CC1 [Example 66, 4-(4-{2-[(2S)-2-Hydroxy-3-(4-hydroxy-3-methanesulfonylamino-phenoxy)-propylamino]-ethyl}-phenylamino)-piperidine-1-carboxylic Acidoctylamide]	0.2 µM	0.99	
O=C(CCNC(=O)N1CCC(Nc2ccc(CCNC[C@H](O)COc3ccc(O)cc3)cc2)CC1)N1CCOCC1 [Example 90, 4-(4-{2-[(2S)-2-Hydroxy-3-(4-hydroxy-phenoxy)-propylamino]-ethyl}-phenylamino)-piperidine-1-carboxylic Acid (3-morpholin-4-yl-3-oxo-propyl)-amide]	0.077 µM	0.73	
COC(=O)[C@@H]1CCCN1C(=O)N1CCC(Nc2ccc(CCNC[C@H](O)c3ccc(O)c(NS(C)(=O)=O)c3)cc2)CC1 [Example 77, 1-[[4-[[4-[2-[[(2R)-2-Hydroxy-2-[4-hydroxy[(methylsulfonyl)amino]phenyl]ethyl]amino]ethyl]phenyl]amino]-1-piperidinyl]carbonyl]-L-proline, Methyl Ester]	0.028 µM	0.99	
CN(C)C(=O)Oc1ccc(CNC(=O)N2CCC(Nc3ccc(CCNC[C@H](O)COc4ccc(O)cc4)cc3)CC2)c(F)c1 [Example 84, Dimethyl-carbamic Acid 3-fluoro-4-({[4-(4-{2-[(2S)-2-hydroxy-3-(4-hydroxy-phenoxy)-propylamino]-ethyl}-phenlamino)-piperidine-1-carbonyl]-amino}-methyl)-phenyl Ester]		0.75	0.096
O=C(NCc1ccc(F)cc1)N1CCC(Nc2ccc(CCNC[C@H](O)COc3ccc(O)cc3)cc2)CC1 [Example 1, 4-(4-{2-[(2S)-2-Hydroxy-3-(4-hydroxy-phenoxy)-propylamino]-ethyl}-phenylamino)-piperidine-1-carboxylic Acid 4-fluoro-benzylamide]	0.032 µM and 0.036 µM and 0.05 µM	0.95 and 0.71 and 0.91	
CCCCCCCCNC(=O)N1CCC(Nc2ccc(CCNC[C@H](O)COc3ccc(N)nc3)cc2)CC1 [Example 5, 4-(4-{2-[(2S)-3-(6-Amino-pyridin-3-yloxy)-2-hydroxy-propylamino]-ethyl}-phenylamino)-piperidine-1-carboxylic Acid Octylamide]		0.68	
CCOC(=O)C1CCCN(C(=O)N2CCC(Nc3ccc(CCNC[C@H](O)c4ccc(O)c(NS(C)(=O)=O)c4)cc3)CC2)C1 (stereo partly drawn) [Example 78, 1-[[4-[[4-[2-[[(2R)-2-Hydroxy-2-[4-hydroxy-3-[(methylsulfonyl)amino]phenyl]ethyl]amino]ethyl]phenyl]amino]-1-piperidinyl]carbonyl]-3-piperidine Carboxylic Acid, Ethyl Ester]		1	
Cc1ccc(S(=O)(=O)N2CCC(Nc3ccc(CCNC[C@H](O)COc4ccc(O)cc4)cc3)CC2)cc1 [Example 112, 4-[(2S)-2-Hydroxy-3-(2-{4-[1-(toluene-4-sulfonyl)-piperidin-4-ylamino]-phenyl}-ethylamino)-propoxy]-phenol]	0.086 µM	0.89	
CN(C(=O)CCNC(=O)N1CCC(Nc2ccc(CCNC[C@H](O)COc3ccc(O)cc3)cc2)CC1)c1ccc(Cl)cc1 [Example 82, 4-(4-{2-[(2S)-2-Hydroxy-3-(4-hydroxy-phenoxy)-propylamino]-ethyl}-phenylamino)-piperidine-1-carboxylic Acid {2-[(4-chloro-phenyl)-methyl-carbamoyl]-ethyl}-amide]	0.053 µM	0.94	
O=C(c1cc2cc(Br)ccc2[nH]1)N1CCC(Nc2ccc(CCNC[C@H](O)COc3ccc(O)cc3)cc2)CC1 [Example 96, (5-Bromo-1H-indol-2-yl)-[4-(4-{2-[(2S)-2-hydroxy-3-(4-hydroxy-phenoxy)-propylamino]-ethyl}-phenylamino)-piperidin-1-yl]-methanone]	0.306 µM	0.83	
CCOC(=O)c1ccc(N2CCC(Nc3ccc(CCNC[C@H](O)c4ccc(O)c(NS(C)(=O)=O)c4)cc3)CC2)cc1 [Example 120, 4-[4-(4-{2-[(2R)-2-Hydroxy-2-(4-hydroxy-3-methanesulfonylamino-phenyl)-ethylamino]-ethyl}-phenylamino)-piperidin-1-yl]-benzoic Acid Ethyl Ester]	0.025 µM	1.1	
CCCCCCCCNC(=O)N1CCC(Oc2ccc(CCNC[C@H](O)COc3ccc(O)cc3)cc2)CC1 [Example 54, 4-[4-(2-{[(2S)-2-Hydroxy-3-(4-hydroxyphenoxy)propyl]amino}ethyl)phenoxy]-N-octyl-1-piperidinecarboxamide]	1.01 µM and 0.398 µM and 0.4 µM	0.7 and 0.78 and 0.51	
CS(=O)(=O)Nc1cc([C@@H](O)CNCCc2ccc(NC3CCN(C(=O)c4ccc(C(=O)O)cc4)CC3)cc2)ccc1O [Example 105, 4-[4-(4-{2-[(2R)-2-Hydroxy-2-(4-hydroxy-3-methanesulfonylamino-phenyl)-ethylamino]-ethyl}-phenylamino)-piperidine-1-carbonyl]-benzoic Acid]	0.037 µM	1	
CCCCCCCCNC(=O)N1CCC(Nc2ccc(CCNC[C@H](O)c3cccc(Cl)c3)cc2)CC1 [Example 36, 4-(4-{2-[(2R)-2-(3-Chloro-phenyl)-2-hydroxy-ethylamino]-ethyl}-phenylamino)-piperidine-1-carboxylic Acid Octylamide]		0.77	
O=C(O)COc1ccc(NC(=O)N2CCC(Nc3ccc(CCNC[C@H](O)COc4ccc(O)cc4)cc3)CC2)cc1 [Example 58, (4-{[4-(4-{2-[(2S)-2-Hydroxy-3-(4-hydroxy-phenoxy)-propylamino]-ethyl}-phenylamino)-piperidine-1-carbonyl]-amino}-phenoxy)-acetic Acid]	0.32 µM	1.61	
CNC(=O)N1CCC(Nc2ccc(CCNC[C@H](O)COc3ccc(O)cc3)cc2)CC1 [Example 9, 4-(4-{2-[(2S)-2-Hydroxy-3-(4-hydroxy-phenoxy)-propylamino]-ethyl}-phenylamino)-piperidine-1-carboxylic Acid Methylamide]		0.85	
O=C(CCNC(=O)N1CCC(Nc2ccc(CCNC[C@H](O)COc3ccc(O)cc3)cc2)CC1)Nc1ccc(F)cc1 [Example 81, 4-(4-{2-[(2S)-2-Hydroxy-3-(4-hydroxy-phenoxy)-propylamino]-ethyl}-phenylamino)-piperidine-1-carboxylic Acid [2-(4-fluoro-phenylcarbamoyl)-ethyl]-amide]	0.021 µM	1	
Cc1ccsc1C(=O)N1CCC(Nc2ccc(CCNC[C@H](O)COc3ccc(O)cc3)cc2)CC1 [Example 100, [4-(4-{2-[(2S)-2-Hydroxy-3-(4-hydroxy-phenoxy)-propylamino]-ethyl}-phenylamino)-piperidin-1-yl]-(3-methyl-thiophen-2-yl)-methanone]	0.016 µM	0.98	
CCCCCCCCNC(=O)N1CCC(Nc2ccc(OCCNC[C@H](O)COc3ccc(O)cc3)cc2)CC1 [Example 73, 4-(4-{2-[(2S)-2-Hydroxy-3-(4-hydroxy-phenoxy)-propylamino]-ethoxy}-phenylamino)-piperidine-1-carboxylic Acid Octylamide]	0.07 µM	0.8	
COc1ccc2[nH]c(C(=O)N3CCC(Nc4ccc(CCNCC(O)COc5ccc(O)cc5)cc4)CC3)cc2c1 (stereo not drawn) [Example 94, [4-(4-{2-[2-Hydroxy-3-(4-hydroxy-phenoxy)-propylamino]-ethyl}-phenylamino)-piperidin-1-yl]-(5-methoxy-1H-indol-2-yl)-methanone]	0.01 µM and 0.054 µM	0.59 and 0.78	
COc1cccc(CCNC(=O)N2CCC(Nc3ccc(CCNC[C@H](O)COc4ccc(O)cc4)cc3)CC2)c1 [Example 6, 4-(4-{2-[(2S)-2-Hydroxy-3-(4-hydroxy-phenoxy)-propylamino]-ethyl}-phenylamino)-piperidine-1-carboxylic Acid [2-(3-methoxy-phenyl)-ethyl]-amide]	0.106 µM	1.21	
1H-Indole-2-carboxylic Acid (4-{2-[(2S)-2-hydroxy-3-(4-hydroxy-phenoxy)-propylamino]-ethyl}-phenyl)-amide [Example 91]	0.051 µM	1	
COc1cccc(CNC(=O)N2CCC(Nc3ccc(CCNC[C@H](O)COc4ccc(O)cc4)cc3)CC2)c1 [Example 79, 4-(4-{2-[(2S)-2-Hydroxy-3-(4-hydroxy-phenoxy)-propylamino]-ethyl}-phenylamino)-piperidine-1-carboxylic acid 3-methoxy-benzylamide]	0.041 µM	0.8	
CCCCCCCCNC(=O)N1CCC(C(=O)N2CCC(Nc3ccc(CCNC[C@H](O)COc4ccc(O)cc4)cc3)CC2)CC1 [Example 92, 4-[4-(4-{2-[(2S)-2-Hydroxy-3-(4-hydroxy-phenoxy)-propylamino]-ethyl}-phenylamino)-piperidine-1-carbonyl]-piperidine-1-carboxylic Acidoctylamide]	0.01 µM	0.92	
4-(4-{2-[(2S)-2-Hydroxy-3-(4-hydroxy-phenoxy)-propylamino]-ethyl}-phenylamino)-piperidine-1-carboxylic Acid 4-fluoro-benzylamide [Example 53]		1.17 and 1.5	
